Laboratory results from ChEMBL document CHEMBL3112526, “20S proteasome as novel biological target for organochalcogenanes” (Eur J Med Chem, 2014).
pIC50: −log10 of the molar value. Active and inactive are the calls of the source. The calls are words filed in the database; no cut-off is given here.

What was measured:
Equus caballus [1] = organism: Equus caballus; assay: Inhibition of horse erythrocytes trypsin like activity of beta2-20S proteasome using z-ARR-AMC as substrate at 100 uM measured for 60 mins by fluorescence assay
Saccharomyces cerevisiae = assay: Inhibition of yeast 20S proteasome
Equus caballus [2] = organism: Equus caballus; assay: Inhibition of horse erythrocytes chymotrypsin like activity of beta5-20S proteasome using suc-LLVY-AMC as substrate at 100 uM measured for 60 mins by fluorescence assay
[3] = Inhibition of horse erythrocytes trypsin like activity of beta2-20S proteasome using z-ARR-AMC as substrate measured for 60 mins by fluorescence assay; set-up: species or system Equus caballus
Equus caballus [4] = organism: Equus caballus; assay: Inhibition of horse erythrocytes caspase like activity of beta1-20S proteasome using z-LLE-AMC as substrate at 100 uM measured for 60 mins by fluorescence assay
[5] = target: Proteasome subunit beta type-2 (Mus musculus) (UniProt Q9R1P3); assay: Inhibition of trypsin like activity of beta2-20S proteasome in mouse NIH-3T3 cells at 2 times IC50; assay type: cell-based; settings: NIH3T3
NIH3T3 [6] = assay: Cytotoxicity against mouse NIH/3T3 cells assessed as cell viability at 10 to 100 umol/L after 2 hrs by MTT assay; assay type: cell-based; settings: nih3t3, 2 h
[7] = Cytotoxicity against mouse NIH/3T3 cells assessed as cell viability at 0.5 to 10 umol/L after 2 hrs by MTT assay; assay type: cell-based, NIH3T3; settings: read-out: Activity
[8] = Chemical stability of the compound under aqueous condition; assay type: physicochemical; settings: buffer
[9] = Cytotoxicity against mouse NIH/3T3 cells assessed as cell viability at 1 to 40 umol/L after 2 hrs by MTT assay; assay type: cell-based, NIH3T3; settings: read-out: Activity
[10] = (§1) Cytotoxicity against mouse NIH/3T3 cells assessed as cell viability at 80 umol/L after 2 hrs by MTT assay; assay type: cell-based, NIH3T3; settings: NIH/3T3 cells, read-out: Activity
[11] = Chemical stability of the compound under aqueous condition assessed as drug transformation; assay type: physicochemical; settings: buffer
NIH3T3 [12] = assay: as §1; assay type: cell-based; settings: nih3t3, 2 h, 80 µM
[13] = Cytotoxicity against mouse NIH/3T3 cells assessed as cell viability at 40 umol/L after 2 hrs by MTT assay; assay type: cell-based, NIH3T3; settings: read-out: Activity
NIH3T3 [14] = assay: Cytotoxicity against mouse NIH/3T3 cells assessed as cell viability after 2 hrs by MTT assay; assay type: cell-based; settings: nih3t3, 2 h
[15] = Cytotoxicity against mouse NIH/3T3 cells assessed as cell viability at 10 umol/L after 2 hrs by MTT assay; assay type: cell-based, NIH3T3; settings: read-out: Activity
[16] = Cytotoxicity against mouse NIH/3T3 cells assessed as cell viability at 20 umol/L after 2 hrs by MTT assay; assay type: cell-based, NIH3T3; settings: read-out: Activity

Proteasome subunit beta type-2 (Mus musculus), sequence (Q9R1P3 whole entry): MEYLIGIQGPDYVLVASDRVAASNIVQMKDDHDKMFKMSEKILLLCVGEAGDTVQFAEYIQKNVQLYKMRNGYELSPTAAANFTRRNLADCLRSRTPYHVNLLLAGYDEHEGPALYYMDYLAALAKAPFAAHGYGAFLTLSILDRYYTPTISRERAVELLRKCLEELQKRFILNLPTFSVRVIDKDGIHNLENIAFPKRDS

CCCC[Se]c1ccccc1[C@@H](C)OC
inhibition (Equus caballus [1]): inactive

CCCC[Se]c1ccccc1COC
inhibition (Equus caballus [1]): inactive

CCCC[Te](Cl)(Cl)c1ccccc1[C@H](C)OC
inhibition (Saccharomyces cerevisiae): inactive | inhibition (Equus caballus [2]): inactive | pIC50 [3]: 5.26 | inhibition (Equus caballus [4]): inactive | inhibition (Equus caballus [1]): > 50%

CCCC[Te]c1ccccc1[C@@H](C)OC
inhibition (Equus caballus [1]): inactive

CCCC[Te](Cl)(Cl)c1ccccc1COC
inhibition (Saccharomyces cerevisiae): inactive | inhibition (Equus caballus [2]): inactive | pIC50 [3]: 5.46 | inhibition (Equus caballus [4]): inactive | inhibition [5]: inactive | Activity (NIH3T3 [6]): Non-toxic | viability at 2 h [7]: 60% | Stability [8]: Stable | inhibition (Equus caballus [1]): 90%

CCCC[Te](Cl)(Cl)c1ccccc1[C@@H](C)OC
inhibition (Saccharomyces cerevisiae): inactive | inhibition (Equus caballus [2]): inactive | pIC50 [3]: 5.40 | inhibition (Equus caballus [4]): inactive | inhibition (Equus caballus [1]): > 50%

CCCC[Te](Br)(Br)c1ccccc1[C@H](C)OC
inhibition (Saccharomyces cerevisiae): inactive | inhibition (Equus caballus [2]): inactive | pIC50 [3]: 4.82 | inhibition (Equus caballus [4]): inactive | inhibition (Equus caballus [1]): > 50%

CCCC[Te](Br)(Br)c1ccccc1COC
viability at 2 h [9]: 60% | inhibition (Saccharomyces cerevisiae): inactive | viability at 2 h, 80 µM [10]: > 50% | inhibition (Equus caballus [2]): inactive | pIC50 [3]: 5.40 | inhibition (Equus caballus [4]): inactive | inhibition [5]: inactive | Stability [8]: Stable | inhibition (Equus caballus [1]): 90%

CCCC[Te]c1ccccc1COC
inhibition (Equus caballus [1]): inactive

CCCC[Se]1(Cl)c2ccccc2C[O+]1C.[Cl-] (stereo not drawn)
inhibition (Saccharomyces cerevisiae): inactive | Stability [11]: Unstable | Activity (NIH3T3 [12]): Non-toxic | viability at 2 h, 40 µM [13]: 40% | inhibition (Equus caballus [2]): inactive | pIC50 [3]: 4.46 | inhibition (Equus caballus [4]): inactive | inhibition [5]: Active | Activity (NIH3T3 [14]): Dose-dependent effect | viability at 2 h, 10 µM [15]: 50% | inhibition (Equus caballus [1]): 90%

CCCC[Se]1(Br)c2ccccc2[C@H](C)[O+]1C (stereo partly drawn)
inhibition (Saccharomyces cerevisiae): inactive | inhibition (Equus caballus [2]): inactive | pIC50 [3]: 4.72 | inhibition (Equus caballus [4]): inactive | inhibition (Equus caballus [1]): > 50%

CCCC[Se]1(Cl)c2ccccc2[C@@H](C)[O+]1C (stereo partly drawn)
inhibition (Saccharomyces cerevisiae): inactive | inhibition (Equus caballus [2]): inactive | pIC50 [3]: 4.47 | inhibition (Equus caballus [4]): inactive | inhibition (Equus caballus [1]): > 50%

CCCC[Se]1(Br)c2ccccc2C[O+]1C.[Br-] (stereo not drawn)
viability at 2 h, 20 µM [16]: 75% | inhibition (Saccharomyces cerevisiae): inactive | Stability [11]: Unstable | inhibition (Equus caballus [2]): inactive | pIC50 [3]: 4.80 | inhibition (Equus caballus [4]): inactive | inhibition [5]: Active | inhibition (Equus caballus [1]): 90%

CCCC[Te](Br)(Br)c1ccccc1[C@@H](C)OC
inhibition (Saccharomyces cerevisiae): inactive | inhibition (Equus caballus [2]): inactive | pIC50 [3]: 5.10 | inhibition (Equus caballus [4]): inactive | inhibition (Equus caballus [1]): 90%

CCCC[Se]1(Br)c2ccccc2[C@@H](C)[O+]1C (stereo partly drawn)
inhibition (Saccharomyces cerevisiae): inactive | inhibition (Equus caballus [2]): inactive | pIC50 [3]: 4.59 | inhibition (Equus caballus [4]): inactive | inhibition (Equus caballus [1]): > 50%

CCCC[Te]c1ccccc1[C@H](C)OC
inhibition (Equus caballus [1]): inactive

CCCC[Se]1(Cl)c2ccccc2[C@H](C)[O+]1C (stereo partly drawn)
inhibition (Saccharomyces cerevisiae): inactive | inhibition (Equus caballus [2]): inactive | pIC50 [3]: 4.49 | inhibition (Equus caballus [4]): inactive | inhibition (Equus caballus [1]): > 50%

CCCC[Se]c1ccccc1[C@H](C)OC
inhibition (Equus caballus [1]): inactive
